This is an account of results in patent US20250340551A1, “SMALL MOLECULE MODULATORS OF STAT6” (Gilead Sciences, Inc., priority 2024, published 2025).

Each structure is given as a SMILES string. A value given as a limit tells only on which side of the number the result lay.

The first experiment relates to Eotaxin-3 (CCL26) release in human whole blood stimulated with IL-4. Briefly: Human whole blood eotaxin-3 assay (IL-4 stimulated, Eotaxin-3 release). It counts as cell-based. The settings on record: Homo sapiens, 48 h. The protocol:
This was a human whole blood assay using recombinant human Interleukin 4 to stimulate the blood and measuring the ability of the test compounds to inhibit eotaxin-3 release. The biological activities of the test compounds have been tested in human whole blood stimulated with IL-4 measuring Eotaxin-3 release. The test compounds were added to 384 well clear flat-bottom plate in a 4-fold serial dilution in triplicates using a liquid handler. Human whole blood stabilized in lithium-heparin tubes was added in a volume of 65 μL per well, resulting in a final DMSO concentration of 0.5%. The plate is incubated for 2 h at 37° C. under 5% CO2/95% air. Subsequently, 5 μL of recombinant human IL-4 (R&D Systems, cat #204-ILB) was added to the wells to a final concentration of 400 pM. The plate was incubated for 48 h at 37° C. under 5% CO2/95% air. The plate was spun down for 10 minutes at 500×g and 20 μL supernatant was harvested and transferred to a 384 well v-bottom plate using a liquid handler and stored at −20° C. until further analysis. 10 μL supernatant was used to measure the level of Eotaxin-3 (CCL26) using Human Eotaxin-3 MSD kit from Mesocsale (Cat #K251UEK-4). The assay was performed according to the manufacture instructions.
The data from the human whole blood eotaxin-3 assay is shown below for Examples 1u2, 1x1, 1af26, and 1af36 (where the effect in % is plotted against the test concentration in M on a log-scale).
The compound `CNc1ccc(-c2ccnc3c2cc(CN2CC=C(c4ccc(C(=O)N(C)C)cn4)CC2)n3C)nn1` [Example 1p8, N,N-Dimethyl-6-[1-[[1-methyl-4-[6-(methylamino)pyridazin-3-yl]pyrrolo[2,3-b]pyridin-2-yl]methyl]-3,6-dihydro-2H-pyridin-4-yl]pyridine-3-carboxamide] came in with a maximal effect (Emax) of under 20%.

As to `CNc1ccc(-c2ccnc3c2cc(CN2CCN(c4ccc(C(=O)N(C)C)cn4)CC2)n3C)nn1` [Example 1p9, N,N-Dimethyl-6-[4-[[1-methyl-4-[6-(methylamino)pyridazin-3-yl]pyrrolo[2,3-b]pyridin-2-yl]methyl]piperazin-1-yl]pyridine-3-carboxamide], the Emax was under 20%.

`CN(C)C(=O)c1ccc(C2=CCN(Cc3cc4c(-c5ccc(N)nc5)ccnc4n3C)CC2)nn1` [Example 1z3, 6-(1-((4-(6-aminopyridin-3-yl)-1-methyl-1H-pyrrolo[2,3-b]pyridin-2-yl)methyl)-1,2,3,6-tetrahydropyridin-4-yl)-N,N-dimethylpyridazine-3-carboxamide] showed an Emax of under 20%.

For the compound `[2H]C([2H])([2H])N(C(=O)c1ccc(C2=CCN(Cc3cc4c(-c5ccc(N)nc5)ccnc4n3C)CC2)nn1)C([2H])([2H])[2H]` [Example 1z4, 6-(1-((4-(6-aminopyridin-3-yl)-1-methyl-1H-pyrrolo[2,3-b]pyridin-2-yl)methyl)-1,2,3,6-tetrahydropyridin-4-yl)-N,N-bis(methyl-d3)pyridazine-3-carboxamide], the Emax lay within 20 to 30%.

`Cc1cc(C2=CCN(Cc3cc4c(-c5ccc(N)nc5)ccnc4n3C)CC2)ccc1C(=O)N(C)C` [Example 1z5, 4-(1-((4-(6-aminopyridin-3-yl)-1-methyl-1H-pyrrolo[2,3-b]pyridin-2-yl)methyl)-1,2,3,6-tetrahydropyridin-4-yl)-N,N,2-trimethylbenzamide] gave an Emax of 30 to 40%.

The compound `Cc1cc(C(=O)N(C)C)nnc1C1=CCN(Cc2cc3c(-c4ccc(N)nc4)ccnc3n2C)CC1` [Example 1z6, 6-(1-((4-(6-aminopyridin-3-yl)-1-methyl-1H-pyrrolo[2,3-b]pyridin-2-yl)methyl)-1,2,3,6-tetrahydropyridin-4-yl)-N,N,5-trimethylpyridazine-3-carboxamide] registered an Emax of under 20%.

With `CN(C)C(=O)c1ccc(C2=CCN(Cc3cc4c(-c5ccc(N)nc5)ccnc4n3C)CC2)cc1F` [Example 1z7, 4-(1-((4-(6-aminopyridin-3-yl)-1-methyl-1H-pyrrolo[2,3-b]pyridin-2-yl)methyl)-1,2,3,6-tetrahydropyridin-4-yl)-2-fluoro-N,N-dimethylbenzamide], the Emax lay within 20 to 30%.

The compound `[2H]C([2H])([2H])N(C(=O)c1cnc(C2=CCN(Cc3cc4c(-c5cnc(N)cc5F)ccnc4n3C)CC2)nc1)C([2H])([2H])[2H]` [Example 1z11, 2-(1-((4-(6-amino-4-fluoropyridin-3-yl)-1-methyl-1H-pyrrolo[2,3-b]pyridin-2-yl)methyl)-1,2,3,6-tetrahydropyridin-4-yl)-N,N-bis(methyl-d3)pyrimidine-5-carboxamide] gave an Emax of 20 to 30%.

The experiment is the same for the next values; noted with them: Homo sapiens, Hec50, 48 h.
Compound `[2H]C([2H])([2H])N(C(=O)c1cc(C)c(C2=CCN([C@@H](C)c3cc4c(-c5ccc(N)nn5)ccnc4n3C)CC2)c(F)c1)C([2H])([2H])[2H]` [Example 1af81, (S)-4-(1-(1-(4-(6-aminopyridazin-3-yl)-1-methyl-1H-pyrrolo[2,3-b]pyridin-2-yl)ethyl)-1,2,3,6-tetrahydropyridin-4-yl)-3-fluoro-5-methyl-N,N-bis(methyl-d3)benzamide] returned an EC50 of 12.6 nM.

Take `CN(C)C(=O)c1ccc(C2CCN(Cc3cc4c(-c5ccc(N)c(C(=O)O)n5)ccnc4n3C)CC2)cc1` [Example 1k79, 3-Amino-6-[2-[[4-[4-(dimethylcarbamoyl)phenyl]-1-piperidyl]methyl]-1-methyl-pyrrolo[2,3-b]pyridin-4-yl]pyridine-2-carboxylic acid]: a half-maximal response (EC50) required 7170 nM.

Turning to `[2H]C([2H])([2H])N(C(=O)c1ccc(N2CCN(Cc3cc4c(-c5ccc(NC)nn5)ccnc4n3C)CC2)c(C)c1)C([2H])([2H])[2H]` [Example 1p4, 3-Methyl-4-[4-[[1-methyl-4-[6-(methylamino)pyridazin-3-yl]pyrrolo[2,3-b]pyridin-2-yl]methyl]piperazin-1-yl]-N,N-bis(trideuteriomethyl)benzamide], it took 13300 nM to reach a half-maximal effect (EC50).

In turn, `[2H]C([2H])([2H])N(C(=O)c1ccc(C2=CCN(Cc3cc4c(-c5ccc(NC)nn5)ccnc4n3C)CC2)c(C)c1)C([2H])([2H])[2H]` [Example 1p7, 3-Methyl-4-[1-[[1-methyl-4-[6-(methylamino)pyridazin-3-yl]pyrrolo[2,3-b]pyridin-2-yl]methyl]-3,6-dihydro-2H-pyridin-4-yl]-N,N-bis(trideuteriomethyl)benzamide] displayed an EC50 of 504 nM.

On to `CNc1ccc(-c2ccnc3c2cc(CN2CC=C(c4c(C)cc(C(=O)N(C)C)cc4C)CC2)n3C)nn1` [Example 1p10, N,N,3,5-Tetramethyl-4-[1-[[1-methyl-4-[6-(methylamino)pyridazin-3-yl]pyrrolo[2,3-b]pyridin-2-yl]methyl]-3,6-dihydro-2H-pyridin-4-yl]benzamide], for which the EC50 came out at 239 nM.

In turn, `CNc1ccc(-c2ccnc3c2cc(CN2CC=C(c4ncc(C(=O)N(C)C)cc4C)CC2)n3C)nn1` [Example 1p11, N,N,5-Trimethyl-6-[1-[[1-methyl-4-[6-(methylamino)pyridazin-3-yl]pyrrolo[2,3-b]pyridin-2-yl]methyl]-3,6-dihydro-2H-pyridin-4-yl]pyridine-3-carboxamide] had an EC50 of 4530 nM.

In turn, `CNc1ccc(-c2ccnc3c2cc(CN2CC=C(c4ccc(C(=O)N(C)C)cc4OC)CC2)n3C)nn1` [Example 1p14, 3-Methoxy-N,N-dimethyl-4-[1-[[1-methyl-4-[6-(methylamino)pyridazin-3-yl]pyrrolo[2,3-b]pyridin-2-yl]methyl]-3,6-dihydro-2H-pyridin-4-yl]benzamide] yielded an EC50 of 3200 nM.

In turn, `CNc1ccc(-c2ccnc3c2cc(CN2CC=C(c4ccc(C(=O)N(C)C)cc4C(F)(F)F)CC2)n3C)nn1` [Example 1p15, N,N-Dimethyl-4-[1-[[1-methyl-4-[6-(methylamino)pyridazin-3-yl]pyrrolo[2,3-b]pyridin-2-yl]methyl]-3,6-dihydro-2H-pyridin-4-yl]-3-(trifluoromethyl)benzamide] returned an EC50 of 1530 nM.

The compound `CNc1ccc(-c2ccnc3c2cc(CN2CC=C(c4c(C)cc(C(=O)N(C)C)cc4F)CC2)n3C)nn1` [Example 1p17, 3-Fluoro-N,N,5-trimethyl-4-[1-[[1-methyl-4-[6-(methylamino)pyridazin-3-yl]pyrrolo[2,3-b]pyridin-2-yl]methyl]-3,6-dihydro-2H-pyridin-4-yl]benzamide] came in with an EC50 of 94 nM.

Take `CNc1ccc(-c2ccnc3c2cc(CN2CC=C(c4ccc(C(=O)N(C)C)cc4Cl)CC2)n3C)nn1` [Example 1p18, 3-Chloro-N,N-dimethyl-4-[1-[[1-methyl-4-[6-(methylamino)pyridazin-3-yl]pyrrolo[2,3-b]pyridin-2-yl]methyl]-3,6-dihydro-2H-pyridin-4-yl]benzamide]: the EC50 amounted to 1710 nM.

`CNc1ccc(-c2ccnc3c2cc(CN2CC=C(c4c(F)cc(C(=O)N(C)C)cc4Cl)CC2)n3C)nn1` [Example 1p20, 3-Chloro-5-fluoro-N,N-dimethyl-4-[1-[[1-methyl-4-[6-(methylamino)pyridazin-3-yl]pyrrolo[2,3-b]pyridin-2-yl]methyl]-3,6-dihydro-2H-pyridin-4-yl]benzamide] registered an EC50 of 214 nM.

As for `CN(C)C(=O)c1ccc(C2=CCN(Cc3cc4c(-c5ccc(N)nn5)ccnc4n3C)CC2)cc1` [Example 1z1, 4-(1-((4-(6-aminopyridazin-3-yl)-1-methyl-1H-pyrrolo[2,3-b]pyridin-2-yl)methyl)-1,2,3,6-tetrahydropyridin-4-yl)-N,N-dimethylbenzamide], the EC50 is 5.76 nM.

For `[2H]C([2H])([2H])N(C(=O)c1ccc([C@@H]2CCN(Cc3cc4c(-c5ccc(N)cn5)ccnc4n3C)[C@H](C)C2)cc1)C([2H])([2H])[2H]` [Example 1z9, 4-((2R,4R)-1-((4-(5-aminopyridin-2-yl)-1-methyl-1H-pyrrolo[2,3-b]pyridin-2-yl)methyl)-2-methylpiperidin-4-yl)-N,N-bis(methyl-d3)benzamide], the EC50 is 167 nM.

The compound `CN(C)C(=O)c1ccc(C2=CCN(Cc3cc4c(-c5ccc(N)nc5)ccnc4n3C)CC2)c(C#N)c1` [Example 1z10, 4-(1-((4-(6-aminopyridin-3-yl)-1-methyl-1H-pyrrolo[2,3-b]pyridin-2-yl)methyl)-1,2,3,6-tetrahydropyridin-4-yl)-3-cyano-N,N-dimethylbenzamide] showed an EC50 of 473 nM.

For the compound `Cc1cc(C(=O)N(C)C)cc(C)c1C1=CCN(Cc2cc3c(-c4ccc(N)nn4)ccnc3n2C)CC1` [Example 1z12, 4-(1-((4-(6-aminopyridazin-3-yl)-1-methyl-1H-pyrrolo[2,3-b]pyridin-2-yl)methyl)-1,2,3,6-tetrahydropyridin-4-yl)-N,N,3,5-tetramethylbenzamide], a half-maximal effect (EC50) was put at 57 nM.
